In brackets after ≈: the same amount, converted by molar mass.
Legend:
[1] = Inhibition of metallo-beta-lactamase L1 (unknown origin) overexpressed in Escherichia coli BL21(DE3) assessed as restoration of cefazolin antibacterial activity by measuring cefazolin MIC at 16 ug/ml measured after 12 hrs by macrodilution broth method (reference value: 16 ug/ml)
Escherichia coli = assay: Potentiation of cefazolin-induced antibacterial activity against Escherichia coli BL21(DE3) assessed as cefazolin MIC at 16 ug/ml measured after 12 hrs by macrodilution broth method (reference value: 4 ug/ml); format: functional
[2] = Inhibition of metallo-beta-lactamase L1 (unknown origin) overexpressed in Escherichia coli BL21(DE3) preincubated for 30 mins followed by addition of cefazolin as substrate by spectrophotometric method

SMILES	MIC [1] [µg/mL]	MIC (Escherichia coli) [µg/mL]	IC50 [2] [nM]
O=C(O)CSC(=O)c1ccc(NC(=O)OCc2ccccc2)cc1	16 (≈ 46.3 µM)	4	
CSCC[C@H](NC(=O)Cc1ccccc1)C(=O)SCC(=O)O	4 (≈ 11.7 µM)	4	90
CSCC[C@H](NC(=O)Cc1ccc(-c2ccccc2)cc1)C(=O)SCC(=O)O	4 (≈ 9.58 µM)	4	20
CCCCCC(=O)N[C@@H](Cc1ccccc1)C(=O)SCC(=O)O	2 (≈ 5.93 µM)	4	330
O=C(O)CSC(=O)[C@H](Cc1c[nH]c2ccccc12)NC(=O)Cc1ccccc1	4 (≈ 10.1 µM)	4	210
CCCCCC(=O)N[C@@H](Cc1c[nH]c2ccccc12)C(=O)SCC(=O)O	4 (≈ 10.6 µM)	4	600
O=C(O)CSC(=O)[C@H](Cc1ccccc1)NC(=O)Cc1ccc(-c2ccccc2)cc1	2 (≈ 4.61 µM)	4	140
CSCC[C@H](NC(=O)c1ccccc1)C(=O)SCC(=O)O	4 (≈ 12.2 µM)	4	80
O=C(O)CSC(=O)[C@H](Cc1c[nH]c2ccccc12)NC(=O)Cc1ccc(-c2ccccc2)cc1	4 (≈ 8.46 µM)	4	80
O=C(O)CSC(=O)[C@H](Cc1ccccc1)NC(=O)Cc1ccccc1	2 (≈ 5.6 µM)	4	250
